Tests used:
[1] = Inhibition of P-gp (unknown origin) expressed in MES-SA/DX5 cells assessed as cell growth inhibition after 3 days in presence of 200 nM paclitaxel by MTT assay
[2] = Inhibition of P-gp (unknown origin) expressed in MCF7 cells assessed as increase in reversal of resistance to paclitaxel-induced cytotoxicity by measuring reduction in paclitaxel EC50 at 50 nM incubated for 72 hrs in presence of paclitaxel by SRB assay (Rvb = 11.5 nM)
[3] = Inhibition of P-gp (unknown origin) expressed in MES-SA/DX5 cells assessed as increase in reversal of resistance to paclitaxel-induced cytotoxicity by measuring reduction in paclitaxel EC50 at 50 nM incubated for 72 hrs in presence of paclitaxel by SRB assay (Rvb = 294.6 nM)

| SMILES | EC50 [1] [nM] | EC50 [2] [nM] | EC50 [3] [nM] |
| --- | --- | --- | --- |
| COc1cc2c(cc1OC)CN(CCc1ccc(NC(=O)c3cc(OC)c(OC)cc3NC(=O)c3cnc4ccccc4c3)cc1)CC2 | 16 |  |  |
| COc1cc2c(cc1OC)CN(CCc1ccc(-n3nnc(-c4cc(OC)c(OC)cc4NC(=O)c4cnc5ccccc5c4)n3)cc1)CC2 | 75 | 7.9 | 15 |
| COc1cc2c(cc1OC)CN(CCc1ccc(-n3nnc(-c4cc(OC)c(OC)cc4NC(=O)c4ccc5ccccc5n4)n3)cc1)CC2 |  | 12 | 110 |
| COc1cc2c(cc1OC)CN(CCc1ccc(-n3nnc(-c4cc(OC)c(OC)cc4NC(=O)c4cc5ccccc5cn4)n3)cc1)CC2 |  | 8.5 | 84 |
| COc1cc2c(cc1OC)CN(CCc1ccc(-n3nnc(-c4cc(OC)c(OC)cc4NC(=O)c4cccc5cccnc45)n3)cc1)CC2 |  | 5.4 | 69 |
| COc1cc2c(cc1OC)CN(CCc1ccc(-n3nnc(-c4cc(OC)c(OC)cc4NC(=O)c4nccc5ccccc45)n3)cc1)CC2 |  | 7.6 | 162 |
| COc1cc2c(cc1OC)CN(CCc1ccc(-n3nnc(-c4cc(OC)c(OC)cc4NC(=O)c4cncc5ccccc45)n3)cc1)CC2 |  | 9.1 | 89 |
| COc1cc2c(cc1OC)CN(CCc1ccc(-n3nnc(-c4cc(OC)c(OC)cc4NC(=O)c4cccnc4)n3)cc1)CC2 |  | 9.1 | 98 |
| COc1cc2c(cc1OC)CN(CCc1ccc(-n3nnc(-c4cc(OC)c(OC)cc4NC(=O)c4ccc5ccccc5c4)n3)cc1)CC2 |  | 10 | 113 |
| COc1cc2c(cc1OC)CN(CCc1ccc(-n3nnc(-c4cc(OC)c(OC)cc4NC(=O)c4cnccn4)n3)cc1)CC2 |  | 9.1 | 98 |
| COc1cc2c(cc1OC)CN(CCc1ccc(-n3nnc(-c4cc(OC)c(OC)cc4NC(=O)c4ccccc4)n3)cc1)CC2 |  | 7.7 | 87 |
| COc1cc2c(cc1OC)CN(CCc1ccc(-n3nnc(-c4cc(OC)c(OC)cc4NC(=O)c4ccc(F)c(F)c4)n3)cc1)CC2 |  | 10 | 80 |
| COc1cc2c(cc1OC)CN(CCc1ccc(-n3nnc(-c4cc(OC)c(OC)cc4NC(=O)c4ccsc4)n3)cc1)CC2 |  | 6.4 | 66 |
| COc1cc2c(cc1OC)CN(CCc1ccc(-n3nnc(-c4cc(OC)c(OC)cc4NC(=O)c4ccoc4)n3)cc1)CC2 |  | 10 | 84 |
| COc1cc2c(cc1OC)CN(CCc1ccc(-n3nnc(-c4cc(OC)c(OC)cc4NC(=O)c4coc5ccccc5c4=O)n3)cc1)CC2 |  | 9 | 140 |
| COc1cc2c(cc1OC)CN(CCc1ccc(-n3nnc(-c4cc(OC)c(OC)cc4NC(=O)c4cc(=O)c5c(OC)cccc5o4)n3)cc1)CC2 |  | 7.4 | 5.9 |
| COc1cc2c(cc1OC)CN(CCc1ccc(-n3nnc(-c4cc(OC)c(OC)cc4NC(=O)c4cc(=O)c5cc(F)ccc5o4)n3)cc1)CC2 |  | 8.1 | 7.5 |
| COc1cc2c(cc1OC)CN(CCc1ccc(-n3nnc(-c4cc(OC)c(OC)cc4NC(=O)c4cc(=O)c5cc(C)ccc5o4)n3)cc1)CC2 |  | 6.5 | 4 |
| COc1cc2c(cc1OC)CN(CCc1ccc(-n3nnc(-c4cc(OC)c(OC)cc4NC(=O)c4cc(=O)c5ccccc5o4)n3)cc1)CC2 [Encequidar] | 13 | 7.9 | 4.9 |

— BindingDB's records for doi:10.1021/acs.jmedchem.0c01826 (Athenex, 2021)
